This data set has as its system Anopheles stephensi. Nature of the data set: Anopheles stephensi treated well plate contact test: knockdown and mortality. It is filed as in vivo. The essentials: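 Well surfaces coated with ethanol solution of compound at a defined concentration, alone or with 2 ppm TFNA-AM, then dried. Five non-blood-fed 2–5-day-old adult females per well, fed 10% sucrose; knockdown scored at 1 hour, mortality at 24 and 48 hours, replicate means reported.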

[1] abbreviates: test compound 0.2 ppm plus 2 ppm TFNA-AM, after 24 hours.
[2] abbreviates: test compound 0.2 ppm plus 2 ppm TFNA-AM, after 48 hours.
Where [3] appears, read: test compound 0.2 ppm plus 2 ppm TFNA-AM, knockdown after 1 hour.
Where [4] appears, read: test compound 2 ppm plus 2 ppm TFNA-AM, after 24 hours.
[5] abbreviates: test compound 2 ppm plus 2 ppm TFNA-AM, after 48 hours.
Where [6] appears, read: test compound 2 ppm plus 2 ppm TFNA-AM, knockdown after 1 hour.
Setting [7] is: test compound 20 ppm plus 2 ppm TFNA-AM, after 24 hours.
[8] abbreviates: test compound 20 ppm plus 2 ppm TFNA-AM, after 48 hours.
Where [9] appears, read: test compound 20 ppm plus 2 ppm TFNA-AM, knockdown after 1 hour.
The mark [10] stands for this setting: test compound 200 ppm plus 2 ppm TFNA-AM, after 24 hours.
[11] abbreviates: test compound 200 ppm plus 2 ppm TFNA-AM, after 48 hours.
The mark [12] stands for this setting: test compound 200 ppm plus 2 ppm TFNA-AM, knockdown after 1 hour.
The mark [13] stands for this setting: Anopheles stephensi, 24 h, read-out: mortality % 24, without TFNA-AM.
[14] abbreviates: Anopheles stephensi, 48 h, read-out: mortality % 48, without TFNA-AM.
Where [15] appears, read: Anopheles stephensi, test compound 0.2 ppm, without TFNA-AM, knockdown after 1 hour, read-out: Knock Down, without TFNA-AM.
[16] abbreviates: Anopheles stephensi, test compound 2 ppm, without TFNA-AM, knockdown after 1 hour, read-out: Knock Down, without TFNA-AM.
Where [17] appears, read: Anopheles stephensi, test compound 20 ppm, without TFNA-AM, knockdown after 1 hour, read-out: Knock Down, without TFNA-AM.
[18] abbreviates: Anopheles stephensi, test compound 0.2 ppm, without TFNA-AM, after 24 hours, read-out: mortality % 24, without TFNA-AM.
Where [19] appears, read: Anopheles stephensi, test compound 0.2 ppm, without TFNA-AM, after 48 hours, read-out: mortality % 48, without TFNA-AM.
The mark [20] stands for this setting: Anopheles stephensi, test compound 2 ppm, without TFNA-AM, after 24 hours, read-out: mortality % 24, without TFNA-AM.
Setting [21] is: Anopheles stephensi, test compound 2 ppm, without TFNA-AM, after 48 hours, read-out: mortality % 48, without TFNA-AM.
[22] abbreviates: Anopheles stephensi, test compound 20 ppm, without TFNA-AM, after 24 hours, read-out: mortality % 24, without TFNA-AM.
[23] abbreviates: Anopheles stephensi, test compound 20 ppm, without TFNA-AM, after 48 hours, read-out: mortality % 48, without TFNA-AM.
Where [24] appears, read: Anopheles stephensi, test compound 200 ppm, without TFNA-AM, after 24 hours, read-out: mortality % 24, without TFNA-AM.
[25] abbreviates: Anopheles stephensi, test compound 200 ppm, without TFNA-AM, after 48 hours, read-out: mortality % 48, without TFNA-AM.
Where [26] appears, read: Anopheles stephensi, test compound 200 ppm, without TFNA-AM, knockdown after 1 hour, adult females, read-out: Knock Down, without TFNA-AM.

Where two headings read alike, the source gives them in different places.

We go through 7 compounds from patent US20260206755A1, “COMPOUNDS AND COMPOSITIONS HAVING KNOCK-DOWN OR BLOOD FEED INHIBITION ACTIVITY AGAINST INSECT PESTS” (priority 2017, published 2026).

As for `CO/C=C(/C(=O)OC)c1ccccc1COc1cccc(C(F)(F)F)n1` [Picoxystrobin], the “mortality % 24, with TFNA-AM” value stood at 30% under setting [1], 80% under setting [4], 100% under setting [7] and 100% under setting [10]. Moreover, the “mortality % 48, with TFNA-AM” value came out at 20% under setting [2], 80% under setting [5], 100% under setting [8] and 100% under setting [11]. Also, the “Knock Down, with TFNA-AM” value under setting [3] came out at 100%; the “Knock Down, with TFNA-AM” value under setting [6] was determined as 100%; the “Knock Down, with TFNA-AM” value under setting [9] was determined as 100%; the “Knock Down, with TFNA-AM” value under setting [12] was 100%. The “mortality % 24, without TFNA-AM” value by setting is: (test compound 0.2 ppm, without TFNA-AM, after 24 hours) 0%; (test compound 2 ppm, without TFNA-AM, after 24 hours) 50%; (test compound 20 ppm, without TFNA-AM, after 24 hours) 90%; (test compound 200 ppm, without TFNA-AM, after 24 hours) 100%. Also, the “mortality % 48, without TFNA-AM” value by setting is: (test compound 0.2 ppm, without TFNA-AM, after 48 hours) 0%; (test compound 2 ppm, without TFNA-AM, after 48 hours) 0%; (test compound 20 ppm, without TFNA-AM, after 48 hours) 100%; (test compound 200 ppm, without TFNA-AM, after 48 hours) 100%. Besides, the “Knock Down, without TFNA-AM” value by setting is: (test compound 0.2 ppm, without TFNA-AM, knockdown after 1 hour) 0%; (test compound 2 ppm, without TFNA-AM, knockdown after 1 hour) 0%; (test compound 20 ppm, without TFNA-AM, knockdown after 1 hour) 30%; (test compound 200 ppm, without TFNA-AM, knockdown after 1 hour, adult females) 100%.

The term mortality denotes the share of the test organisms that died. Turning to `CNC(=O)Oc1ccccc1OC(C)C` [Propoxur], the mortality at 0.02 ppm reads like this: under setting [13], 0%; under setting [14], 0%. Besides, the mortality at 0.2 ppm runs as follows: under setting [13], 100%; under setting [14], 100%. The mortality at 2 ppm by setting is: under setting [13], 100%; under setting [14], 100%. The mortality at 20 ppm is 100% under setting [13] and 100% under setting [14]. In addition, the pest or weed control at 0.02 ppm (Anopheles stephensi, test compound 0.02 ppm, without TFNA-AM, knockdown after 1 hour, read-out: Knock Down, without TFNA-AM) came to 0%. In addition, the pest or weed control at 0.2 ppm under setting [15] worked out at 0%. Further, the pest or weed control at 2 ppm under setting [16] turned out to be 100%. In addition, under setting [17], the pest or weed control at 20 ppm was 100%. Moreover, the “mortality % 24, with TFNA-AM” value came out at 40% (test compound 0.02 ppm plus 2 ppm TFNA-AM, after 24 hours); 100% under setting [1]; 100% under setting [4]; 100% under setting [7]. Also, the “mortality % 48, with TFNA-AM” value (test compound 0.02 ppm plus 2 ppm TFNA-AM, after 48 hours) is 40%; the “mortality % 48, with TFNA-AM” value under setting [2] was 100%; the “mortality % 48, with TFNA-AM” value under setting [5] is on record as 100%; the “mortality % 48, with TFNA-AM” value under setting [8] amounted to 100%. The “Knock Down, with TFNA-AM” value (test compound 0.02 ppm plus 2 ppm TFNA-AM, knockdown after 1 hour) is 100%; the “Knock Down, with TFNA-AM” value under setting [3] came to 100%; the “Knock Down, with TFNA-AM” value under setting [6] amounted to 100%; the “Knock Down, with TFNA-AM” value under setting [9] is on record as 100%.

For the compound `CC(COc1ccc(Oc2ccccc2)cc1)Oc1ccccn1` (stereo not shown) [Pyriproxyfen], the mortality at 0.2 ppm under setting [18] turned out to be 0% and the mortality at 0.2 ppm under setting [19] came to 0%. The pest or weed control at 0.2 ppm under setting [15] was found to be 0%. Also, the mortality at 2 ppm by setting is: under setting [20], 0%; under setting [21], 0%. Moreover, the pest or weed control at 2 ppm under setting [16] was determined as 0%. The mortality at 20 ppm runs as follows: under setting [22], 0%; under setting [23], 0%. In addition, under setting [17], the pest or weed control at 20 ppm amounted to 0%. Moreover, the mortality at 200 ppm under setting [24] turned out to be 0% and the mortality at 200 ppm under setting [25] amounted to 0%. The pest or weed control at 200 ppm under setting [26] turned out to be 0%. For the same compound, the “mortality % 24, with TFNA-AM” value is, setting by setting: under setting [1], 60%; under setting [4], 60%; under setting [7], 60%; under setting [10], 80%. The “mortality % 48, with TFNA-AM” value is given as 60% under setting [2], 60% under setting [5], 60% under setting [8] and 80% under setting [11]. Moreover, the “Knock Down, with TFNA-AM” value turned out to be 100% under setting [3], 100% under setting [6], 100% under setting [9] and 100% under setting [12].

As to `CC(c1ccc(C(F)(F)F)nc1)S(C)(=O)=NC#N` (stereo not shown) [Sulfoxaflor], the mortality at 0.2 ppm is, setting by setting: under setting [18], 0%; under setting [19], 30%. Moreover, the pest or weed control at 0.2 ppm under setting [15] was 0%. Besides, the mortality at 2 ppm was 0% under setting [20] and 60% under setting [21]. Moreover, under setting [16], the pest or weed control at 2 ppm was determined as 0%. Besides, the mortality at 20 ppm runs as follows: under setting [22], 70%; under setting [23], 80%. Also, the pest or weed control at 20 ppm under setting [17] is 0%. The mortality at 200 ppm came out at 80% under setting [24] and 100% under setting [25]. Also, the pest or weed control at 200 ppm under setting [26] is 20%. For the same compound, the “mortality % 24, with TFNA-AM” value under setting [1] was determined as 0% and the “mortality % 24, with TFNA-AM” value under setting [10] was found to be 90%. Moreover, the “mortality % 48, with TFNA-AM” value under setting [2] turned out to be 20%; the “mortality % 48, with TFNA-AM” value under setting [8] came to 90%; the “mortality % 48, with TFNA-AM” value under setting [11] came to 100%. Further, the “Knock Down, with TFNA-AM” value is, setting by setting: under setting [3], 100%; under setting [6], 100%; under setting [9], 100%; under setting [12], 100%.

Turning to `NC(=O)c1cnccc1C(F)(F)F` [TFNA-AM, 4-(trifluoromethyl)pyridine-3-carboxamide], the mortality at 2 ppm reads like this: (Anopheles stephensi, TFNA-AM 2 ppm alone, after 24 hours, read-out: mortality % 24, TFNA-AM alone) 18.3%; (Anopheles stephensi, TFNA-AM 2 ppm alone, after 48 hours, read-out: mortality % 48, TFNA-AM alone) 11.7%. Also, the “Knock Down, TFNA-AM alone” value (TFNA-AM 2 ppm alone, knockdown after 1 hour) amounted to 75.5%.

Take `CCc1nn(C)c(C(=O)NCc2ccc(C(C)(C)C)cc2)c1Cl` [Tebufenpyrad]: the mortality at 0.2 ppm turned out to be 0% under setting [18] and 0% under setting [19]. The pest or weed control at 0.2 ppm under setting [15] amounted to 0%. Also, the mortality at 2 ppm amounted to 0% under setting [20] and 0% under setting [21]. Further, under setting [16], the pest or weed control at 2 ppm came to 0%. Moreover, the mortality at 20 ppm under setting [22] worked out at 13% and the mortality at 20 ppm under setting [23] was 20%. In addition, the pest or weed control at 20 ppm under setting [17] was 0%. Besides, the mortality at 200 ppm turned out to be 73% under setting [24] and 67% under setting [25]. The pest or weed control at 200 ppm under setting [26] worked out at 0%. Also, the “mortality % 24, with TFNA-AM” value reads like this: under setting [1], 0%; under setting [4], 27%; under setting [7], 80%; under setting [10], 100%. The “mortality % 48, with TFNA-AM” value runs as follows: under setting [2], 0%; under setting [11], 100%. For the same compound, the “Knock Down, with TFNA-AM” value is given as 93% under setting [3], 93% under setting [6], 93% under setting [9] and 93% under setting [12].

On to `CN1COCN(Cc2cnc(Cl)s2)/C1=N\[N+](=O)[O-]` [Thiamethoxam], for which the mortality at 0.2 ppm under setting [18] was 0% and the mortality at 0.2 ppm under setting [19] was 0%. Moreover, the pest or weed control at 0.2 ppm under setting [15] came out at 0%. For the same compound, the mortality at 2 ppm by setting is: under setting [20], 40%; under setting [21], 40%. Under setting [16], the pest or weed control at 2 ppm was found to be 0%. The mortality at 20 ppm is, setting by setting: under setting [22], 60%; under setting [23], 40%. For the same compound, the pest or weed control at 20 ppm under setting [17] came to 0%. Further, the mortality at 200 ppm worked out at 80% under setting [24] and 80% under setting [25]. For the same compound, the pest or weed control at 200 ppm under setting [26] is 0%. For the same compound, the “mortality % 24, with TFNA-AM” value under setting [1] turned out to be 20% and the “mortality % 24, with TFNA-AM” value under setting [10] is on record as 100%. Further, the “Knock Down, with TFNA-AM” value reads like this: under setting [3], 100%; under setting [6], 100%; under setting [9], 100%; under setting [12], 100%. The “mortality % 48, with TFNA-AM” value is reported as 100% under setting [5], 100% under setting [8] and 100% under setting [11].
